Each structure is given as a SMILES string.

Two molecules from article PMC6368365, “Didehydro-Cortistatin A Inhibits HIV-1 by Specifically Binding to the Unstructured Basic Region of Tat” (mBio, 2019) can be followed below.

Experiment [1] addresses Tat-TAR interaction (Human immunodeficiency virus type 1 group M subtype B, UniProt P69697). In words: ChIP of FLAG-Tat followed by qRT-PCR of TAR in HeLa-CD4-LTR-Luc cells. The experiment is classed as cell-based, HIV-1. Also noted: expressed in transfected cells; host or cells: HeLa-CD4-LTR-Luc. The conditions noted are these: compounds 25 nM, 48 h. From the text:
FIG 6 dCA binding to Tat disrupts Tat-TAR interaction. (A) EMSA of full-length Tat with TAR in the presence of dCA. Raltegravir (Ralt.) and deleted bulge TAR (ΔTAR) were used as negative controls. Data are representative of n = 3 independent experiments. (B) EMSA of Tat’s basic domain with TAR in the presence of increasing concentrations of dCA to Tat’s basic peptide. Pep B is a peptide encompassing the basic domain of HIV Tat (^45ISYGRKKRRQRRRAP^59). Pep C (^69LSKQPASQPRGDPTG^83) and unlabeled or cold TAR (TARc) were used as negative controls. Neomycin, which binds to Tat and TAR, was used as a positive control. Ratios of compounds (or TARc) concentrations to peptide are shown. Data are representative of n = 3 independent experiments. […] Shown are ITC results from binding of dCA (left) or Tat peptide (right) to TAR at 25°C. […] For the lower plots, results were converted to molar heats and plotted against the molar ratio of dCA or peptide to RNA. […] Luciferase activity was determined relative to protein concentration (Bradford assay) (Fig. S9A). […] Statistical significance was determined using one-way ANOVA with post hoc Tukey’s test with 3 technical replicates. ns, not significant; ***, P < 0.0001. […]
Chromatin immunoprecipitation assay (CHIP). […] The relative proportions of co-immunoprecipitated DNA were determined on the basis of the threshold cycle for qRT-PCR. […]
For orientation: Real-time PCR tracks product formation cycle by cycle.

Experiment [2] deals with T1, Pep B-TAR interaction (Human immunodeficiency virus type 1 group M subtype B, UniProt P20879).
T1 construct: Pep B is a peptide encompassing the basic domain of HIV Tat (^45ISYGRKKRRQRRRAP^59)
As to the kind of experiment: EMSA of Tat's basic peptide (Pep B) with TAR. The experiment is classed as biochemical, HIV-1. The conditions noted are these: Tat basic peptide residues 45 to 59. From the text: FIG 6 dCA binding to Tat disrupts Tat-TAR interaction. (A) EMSA of full-length Tat with TAR in the presence of dCA. Raltegravir (Ralt.) and deleted bulge TAR (ΔTAR) were used as negative controls. Data are representative of n = 3 independent experiments. (B) EMSA of Tat’s basic domain with TAR in the presence of increasing concentrations of dCA to Tat’s basic peptide. Pep B is a peptide encompassing the basic domain of HIV Tat (^45ISYGRKKRRQRRRAP^59). Pep C (^69LSKQPASQPRGDPTG^83) and unlabeled or cold TAR (TARc) were used as negative controls. Neomycin, which binds to Tat and TAR, was used as a positive control. Ratios of compounds (or TARc) concentrations to peptide are shown. Data are representative of n = 3 independent experiments. […] Shown are ITC results from binding of dCA (left) or Tat peptide (right) to TAR at 25°C. […] For the lower plots, results were converted to molar heats and plotted against the molar ratio of dCA or peptide to RNA. Data are representative of n = 2 independent experiments. (D) Tat-TAR interaction blocked by dCA in HeLa-CD4-LTR-Luc cells in vivo. Cells transfected with Tat or Tat Mut (arginine residues mutated to alanine in Tat’s basic domain) were incubated with DMSO or the indicated compounds (25 nM). Forty-eight hours later, cells were either lysed to determine the luciferase activity or cross-linked for ChIP assays. Luciferase activity was determined relative to protein concentration (Bradford assay) (Fig. S9A). Western blotting was performed to verify the amount of Tat under each condition (Fig. S9B). ChIP of Tat was followed by qRT-PCR of TAR DNA. The results are presented as percentage of input. The mean ± SEM is represented. Data are representative of n = 3 independent experiments. Statistical significance was determined using one-way ANOVA with post hoc Tukey’s test with 3 technical replicates. ns, not significant; ***, P < 0.0001.
We also performed the same experiment with a peptide encompassing the basic domain of Tat (Pep B; residues 45 to 59) and dCA.
EMSA With full-length Tat: similar protocol was performed as in Das et al. (60). […]

Tat-TAR interaction, sequence (P69697 whole entry, the tested form may be a part): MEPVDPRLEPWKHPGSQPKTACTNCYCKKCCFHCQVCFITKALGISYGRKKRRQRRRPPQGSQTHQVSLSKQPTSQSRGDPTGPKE

In the case of `CN(C)C1CC23CCC4(O2)C(=CCC2(C)C(c5ccc6ccncc6c5)=CCC24)C=C3C(O)C1O` (stereo not shown) [dCA, didehydro-cortistatin A], the “Tat-TAR interaction in cells (ChIP)” value in experiment [1] is “reduced this Tat-TAR interaction to similar levels as FLAG-Tat Mut”. In addition, the “inhibition of Pep B-TAR interaction (EMSA)” value in experiment [2] is reported as “inhibited the interaction of Pep B with TAR in a dose-dependent manner”.
The matching figures for `Cc1nnc(C(=O)NC(C)(C)c2nc(C(=O)NCc3ccc(F)cc3)c(O)c(=O)n2C)o1` [raltegravir, reference compound]: “A Tat-TAR interaction was detected” and “did not compete”.
